For orientation: IC50 means the concentration that inhibits the measured activity by half.

Consider 16 compounds from patent US10611729B2, “Farnesoid X receptor antagonists” (City of Hope, priority 2014, dated 2020).

Like-named read-outs stand apart in the source and are kept apart here.

Series [1] concerns the target T1, FXR (Homo sapiens, UniProt Q96RI1).
T1 sequence (Q96RI1 262-486 limits assumed): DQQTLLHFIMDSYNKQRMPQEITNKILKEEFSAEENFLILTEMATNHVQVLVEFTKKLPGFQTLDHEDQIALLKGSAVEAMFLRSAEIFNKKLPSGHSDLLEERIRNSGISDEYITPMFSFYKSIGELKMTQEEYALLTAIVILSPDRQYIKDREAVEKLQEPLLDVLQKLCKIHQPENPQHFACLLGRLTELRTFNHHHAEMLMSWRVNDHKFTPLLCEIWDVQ
Put plainly: FXR TR-FRET binding assay (DY246 fluorescent probe). Particulars: for inhibition at 0.493 µM: at 493 nM; for IC50: mean ± SE; for inhibition at 0.164 µM: at 164 nM. The method, then:
The FXR TR-FRET binding assay was performed as previously described^23 with modifications. […] The plate was spun down after a brief shake and incubated at room temperature for 20 min. The TR-FRET emission signals at 520 nm and 490 nm for each well was then collected using a PHERAstar plate reader (BMG LABTECH, Cary, N.C.) with an excitation wavelength of 337 nm, 100-μs delay time, and 200-μs integration time. The 520 nm/490 nm ratio from each well was then calculated. […] The % inhibition of tested chemicals at given concentration was calculated based on negative and positive controls using equation 1.
(Time-resolved FRET reads energy transfer from a long-lived donor to a nearby acceptor.)

Series [2] deals with GeneBLAzer FXR-UAS-bla HEK 293T cells. As to conditions: human, 16 h.
Protocol: To examine if certain chemical antagonistic effect was caused by cytotoxicity, the same GeneBLAzer FXR cells were used to perform cytotoxicity assay. This assay was set up like the FXR agonistic assay, with the exception of signal reading. Instead of detecting the reporter activities, CellTiter-Glo® assay was used to detect cell viability. DMSO with cells or without cells group were served as negative (0% Inhibition) or positive (100% Inhibition), respectively.
Cytotoxicity assays were performed side-by-side with the FXR agonistic assay using GeneBLAzer FXR-UAS-bla HEK 293T cells with CellTiter-Glo® Luminescent Cell Viability Assay reagent (Promega). Briefly, cells were maintained in DMEM supplemented with 10% dialyzed FBS, 0.1 mM non-essential amino acids, 25 mM HEPES, 100 μg/ml of hygromycin B, 100 μg/ml of zeocin, 100 units/ml penicillin and 100 μg/ml streptomycin in regular tissue culture flasks. […] As a positive control, the wells in column 24 of each plate were filled with 30 μL assay medium along with 0.5% DMSO. The final DMSO concentration was 0.5% in each assay well. After a 16 h incubation in a cell culture incubator at 37° C., the cell plates were cooled at room temperature for 20 min and then CellTiter-Glo® reagent 20 μl/well was added followed by an incubation for 20 min in the dark to allow the development of optimal luminescence signal. The luminescence signal from each well in plates was collected with an Envision plate reader equipped with Ultra-sensitive Luminescence detector. The DMSO group and no cell group served as negative (0% activation) and positive (100% activation) controls, respectively. The % inhibition was calculated using equation 4 below.
For series [3], the target named is T1, FXR. Description: GeneBLAzer FXR cell-based antagonistic assay (in presence of 400 nM GW4064). Details: the Gal4 DBD was fused to the LBD of FXR in this assay; host or cells: GeneBLAzer FXR-UAS-bla HEK 293T cells. Particulars: for IC50: with 400 nM GW4064, read-out: GB FXR Cell Anta. IC50. The method, then:
A GeneBLAzer FXR cell-based assay was used to investigate the cellular activities of the 1,3,4-trisubstituted-pyrazol-4-carboxamide analogs. The assay detects the levels of a […] reporter controlled by a promoter containing the binding site of the DNA binding domain (DBD) of the GAL4 transcription factor; the Gal4 DBD was fused to the LBD of FXR in this assay.^35
FXR transactivation assays were performed using GeneBLAzer FXR-UAS-bla HEK 293T cells (Invitrogen). Cells were maintained according to the manufacturer's instructions. […] Plates were then incubated in dark for 90 min at room temperature before measuring the fluorescent emissions at 460 nm and 535 nm (using excitation at 400 nm) with an Envision plate reader with bottom read capacity. After background signal subtraction for individual emission channels, emission signals at 460 and 535 nm from each well were used to determine the ratio of 460 nm/535 nm. […] The % activation was calculated using equation 2.
The % inhibition was calculated using equation 3.

The mark [4] stands for this setting: read-out: FXR TR-FRET Binding % Inh.
[5] abbreviates: read-out: GB FXR Cell Anta. % Inh.

Take `Cc1ccc(-c2nn(-c3ccc(F)cc3)cc2C(=O)Nc2ccc(C)c(S(=O)(=O)N3CCOCC3)c2)cc1` [Compound 4a, 1-(4-fluorophenyl)-N-(4-methyl-3-(morpholinosulfonyl)phenyl)-3-p-tolyl-1H-pyrarazole-4-carboxamide]: the inhibition at 0.493 µM in series [1] (setting [4]) is 95 ± 1.2%. For the same compound, the IC50 in series [1] was found to be 24.3 ± 0.6 nM; in series [3], 2490 ± 6 nM. The “GB FXR Cell Cyto % Inh.” value in series [2] (40 μM) stood at 18.5 ± 1.0%. Further, the inhibition at 40 µM in series [3] (setting [5]) came to 72 ± 2.2%.

As for `Cc1ccc(-c2nn(-c3cccc(Cl)c3)cc2C(=O)Nc2ccc(C)c(S(=O)(=O)N3CCOCC3)c2)cc1` [Compound 4b, 1-(3-Chlorophenyl)-N-(4-methyl-3-(morpholinosulfonyl)phenyl)-3-(p-tolyl)-1H-pyrazole-4-carboxamide], the inhibition at 0.164 µM in series [1] (setting [4]) stood at 99.3 ± 1.1%. Further, the IC50 in series [1] is 10.4 ± 0.9 nM; in series [3], 5910 ± 150 nM. In series [3] (setting [5]), the inhibition at 40 µM stood at 60.6 ± 0.9%.

As for `Cc1ccc(-c2nn(-c3ccc(Cl)cc3Cl)cc2C(=O)Nc2ccc(C)c(S(=O)(=O)N3CCOCC3)c2)cc1` [Compound 4c, 1-(2,4-Dichlorophenyl)-N-(4-methyl-3-(morpholinosulfonyl)phenyl)-3-(p-tolyl)-1H-pyrazole-4-carboxamide], the inhibition at 0.164 µM in series [1] (setting [4]) is 120 ± 7.8%. Further, the IC50 stood at 14.1 ± 0.3 nM in series [1] and 1240 ± 120 nM in series [3]. Also, in series [3] (setting [5]), the inhibition at 40 µM was 89.9 ± 1.9%.

For the compound `Cc1ccc(-c2nn(-c3cccc(C(F)(F)F)c3)cc2C(=O)Nc2ccc(C)c(S(=O)(=O)N3CCOCC3)c2)cc1` [Compound 4d, N-(4-Methyl-3-(morpholinosulfonyl)phenyl)-3-(p-tolyl)-1-(3-(trifluoromethyl)phenyl)-1H-pyrazole-4-carboxamide], in series [1] (setting [4]), the inhibition at 0.164 µM was determined as 77.5 ± 4.3%. Besides, the IC50 in series [1] was determined as 23.9 ± 2.1 nM; in series [3] it was 22300 ± 1140 nM. Also, the “GB FXR Cell Cyto % Inh.” value in series [2] (40 μM) came to 7.3 ± 0.2%. In addition, the inhibition at 40 µM in series [3] (setting [5]) was determined as 54.8 ± 1.3%.

Consider `Cc1ccc(-c2nn(-c3nc4ccccc4s3)cc2C(=O)Nc2ccc(C)c(S(=O)(=O)N3CCOCC3)c2)cc1` [Compound 4e, 1-(Benzo[d]thiazol-2-yl)-N-(4-methyl-3-(morpholinosulfonyl)phenyl)-3-(p-tolyl)-1H-pyrazole-4-carboxamide], for which, in series [1] (setting [4]), the inhibition at 0.164 µM is 102 ± 2.8%. The IC50 was 17.7 ± 0.4 nM in series [1] and 7910 ± 1160 nM in series [3]. Also, the “fold improvement of activity compared to Z26476908” value in series [1] (text says FXR antagonistic activity / potency in hFXR, figures fit TR-FRET IC50) worked out at 3 fold. In addition, the “GB FXR Cell Cyto % Inh.” value in series [2] (13.3 μM) is reported as 11.5 ± 0.2 (13.3 μM) %. Besides, the inhibition at 40 µM in series [3] (setting [5]) is 79.1 ± 2.4%.

Take `Cc1ccc(-c2nn(C(C)C)cc2C(=O)Nc2ccc(C)c(S(=O)(=O)N3CCOCC3)c2)cc1` [Compound 4f, 1-Isopropyl-N-(4-methyl-3-(morpholinosulfonyl)phenyl)-3-(p-tolyl)-1H-pyrazole-4-carboxamide]: the inhibition at 4.4 µM in series [1] (setting [4]) turned out to be 131 ± 3.8%. Also, the IC50 in series [1] is 49.1 ± 9.9 nM. In series [3], the “FXR antagonistic activity, SAR statement in words” value (“FXR antagonistic activity” below) is given as “retention of the antagonistic activity” and the IC50 turned out to be 1690 ± 180 nM. In addition, in series [3] (setting [5]), the inhibition at 40 µM was 99.1 ± 4.4%.

With `CCCCn1cc(C(=O)Nc2ccc(C)c(S(=O)(=O)N3CCOCC3)c2)c(-c2ccc(C)cc2)n1` [Compound 4g, 1-Butyl-N-(4-methyl-3-(morpholinosulfonyl)phenyl)-3-(p-tolyl)-1H-pyrazole-4-carboxamide], in series [1] (setting [4]), the inhibition at 1.5 µM stood at 130.1 ± 0.7%. This compound gave an IC50 in series [1] of 52.5 ± 4.1 nM. For the same compound, the “GB FXR Cell Cyto % Inh.” value in series [2] (4.4 μM) is 10.3 ± 0.3%. In addition, in series [3], the “FXR antagonistic activity” value is recorded as “retention of the antagonistic activity” and the IC50 stood at 11510 ± 70 nM. The inhibition at 20 µM in series [3] (setting [5]) was 97.9 ± 8.1%.

For the compound `Cc1ccc(-c2nn(Cc3ccc4ccccc4c3)cc2C(=O)Nc2ccc(C)c(S(=O)(=O)N3CCOCC3)c2)cc1` [Compound 4h, N-(4-Methyl-3-(morpholinosulfonyl)phenyl)-1-(naphthalen-2-ylmethyl)-3-(p-tolyl)-1H-pyrazole-4-carboxamide], the inhibition at 0.164 µM in series [1] (setting [4]) was found to be 97.8 ± 1.2%. Also, the IC50 in series [1] was determined as 10.2 ± 1.6 nM; in series [3], 844 ± 10.3 nM. Moreover, in series [2] (4.4 μM), the “GB FXR Cell Cyto % Inh.” value is listed as 7.9 ± 0.3 (4.4 μM) %. Besides, the “FXR antagonistic activity” value in series [3] is listed as “enhanced antagonistic activity”. The inhibition at 40 µM in series [3] (setting [5]) is 84.4 ± 4.1%.

On to `Cc1ccc(-c2nn(CC3CC3)cc2C(=O)Nc2ccc(C)c(S(=O)(=O)N3CCOCC3)c2)cc1` [Compound 4i, 1-(Cyclopropylmethyl)-N-(4-methyl-3-(morpholinosulfonyl)phenyl)-3-(p-tolyl)-1H-pyrazole-4-carboxamide], for which, in series [1], the “fold decrease of activity for hFXR compared to Z26476908” value is reported as 2 fold and the IC50 was 76.9 ± 2.7 nM. Besides, the inhibition at 1.5 µM in series [1] (setting [4]) came out at 105 ± 4.9%. Moreover, the inhibition at 40 µM in series [3] (setting [5]) stood at 100 ± 3.2%. The IC50 in series [3] was 849 ± 69 nM.

Consider `Cc1ccc(-c2nn(Cc3cccc(C(F)(F)F)c3)cc2C(=O)Nc2ccc(C)c(S(=O)(=O)N3CCOCC3)c2)cc1` [Compound 4k, N-(4-methyl-3-(morpholinosulfonyl)phenyl)-3-(p-tolyl)-1-(3-(trifluoromethyl)benzyl)-1H-pyrazole-4-carboxamide], for which, in series [1] (setting [4]), the inhibition at 0.164 µM stood at 99.2 ± 6.4%. Besides, the values for the IC50 in series [1] and in series [3] were 18.4 ± 1.2 nM and 515 ± 25.4 nM, respectively. The inhibition at 40 µM in series [3] (setting [5]) was determined as 93.4 ± 3.9%.

With `COc1cccc(Cn2cc(C(=O)Nc3ccc(C)c(S(=O)(=O)N4CCOCC4)c3)c(C(C)C)n2)c1` [Compound 4m, 3-Isopropyl-1-(3-methoxybenzyl)-N-(4-methyl-3-(morpholinosulfonyl)phenyl)-1H-pyrazole-4-carboxamide], the inhibition at 4.4 µM in series [1] (setting [4]) was 101 ± 5.6%. Further, the IC50 in series [1] came out at 199 ± 21.2 nM. Besides, in series [3], the “FXR antagonistic activity” value was “decreased the potency and affinity”; the IC50 was 3110 ± 580 nM. Moreover, the inhibition at 40 µM in series [3] (setting [5]) came to 99.2 ± 2.7%.

Turning to `COc1cccc(Cn2cc(C(=O)Nc3ccc(C)c(S(=O)(=O)N4CCOCC4)c3)c(-c3cccc(OC)c3)n2)c1` [Compound 4o, 1-(3-Methoxybenzyl)-3-(3-methoxyphenyl)-N-(4-methyl-3-(morpholinosulfonyl)phenyl)-1H-pyrazole-4-carboxamide], the inhibition at 0.493 µM in series [1] (setting [4]) is 114 ± 3.3%. In addition, in series [1], the IC50 was determined as 42.8 ± 0.5 nM. In series [3], the “FXR antagonistic activity” value is “slightly decreased antagonistic activity” and the IC50 came to 1240 ± 90 nM. In series [3] (setting [5]), the inhibition at 40 µM came to 89.4 ± 4.2%.

With `COc1cccc(Cn2cc(C(=O)Nc3ccc(C)c(S(=O)(=O)N4CCOCC4)c3)c(-c3ccc(C(F)(F)F)cc3)n2)c1` [Compound 4q, 1-(3-Methoxybenzyl)-N-(4-methyl-3-(morpholinosulfonyl)phenyl)-3-(4-(trifluoromethyl)phenyl)-1H-pyrazole-4-carboxamide], the inhibition at 0.164 µM in series [1] (setting [4]) stood at 109 ± 3.6%. Moreover, the IC50 in series [1] worked out at 30.9 ± 3.6 nM; in series [3], 592.7 ± 3 nM. Also, the inhibition at 40 µM in series [3] (setting [5]) was 97.6 ± 0.9%.

With `COCCc1nn(C(C)C)cc1C(=O)Nc1ccc(C)c(S(=O)(=O)N2CCOCC2)c1` [Compound 4r], the inhibition at 40 µM in series [1] (at 40 μM, read-out: FXR TR-FRET Binding % Inh.) turned out to be 98.2 ± 3.8%; in series [3] (setting [5]), 62.5 ± 0.8%. The IC50 in series [1] worked out at 3420 ± 190 nM; in series [3] it was 29600 ± 1750 nM. Moreover, the “FXR antagonistic activity” value in series [3] was “loss of potency”.

As for `COCCc1nn(Cc2cccc(OC)c2)cc1C(=O)Nc1ccc(C)c(S(=O)(=O)N2CCOCC2)c1` [Compound 4s], in series [1] (at 13.3 μM, read-out: FXR TR-FRET Binding % Inh.), the inhibition at 13.3 µM stood at 113.5 ± 0.8%. Besides, the 50% inhibitory concentration (IC50) in series [1] stood at 390 ± 9.4 nM; in series [3], 11100 ± 640 nM. Further, the “FXR antagonistic activity” value in series [3] is listed as “loss of potency”. Further, the inhibition at 40 µM in series [3] (setting [5]) amounted to 95.9 ± 2.4%.

Regarding `COc1cccc(Cn2cc(CNc3ccc(C)c(S(=O)(=O)N4CCOCC4)c3)c(-c3cccc(OC)c3)n2)c1` [Compound 9-3, N-((1-(3-Methoxybenzyl)-3-(3-methoxyphenyl)-1H-pyrazol-4-yl)methyl)-4-methyl-3-(morpholinosulfonyl)aniline], the inhibition at 1.48 µM in series [1] (at 1.48 μM, read-out: FXR TR-FRET Binding % Inh.) stood at 39.8 ± 1.8%. In addition, the inhibition at 40 µM in series [3] (setting [5]) was 3.1 ± 0.1%.
